Results taken from PubChem BioAssay (NCI).
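Where inhibition never reached the appropriate level, the endpoint shown equals the highest concentration tested. Otherwise, values were interpolated linearly from a five-concentration, 48-hour dose response in 96-well plates. At the TGI there is no net growth.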

Legend:
Assay in all cases: NCI tumour cell line growth inhibition, 48 h
NCI/ADR-RES ovarian = test system: NCI/ADR-RES ovarian
UO-31 renal = test system: UO-31 renal
DLD-1 colon = test system: DLD-1 colon
UACC-257 melanoma = test system: UACC-257 melanoma
P388 leukemia = test system: P388 leukemia
MOLT-4 leukemia = test system: MOLT-4 leukemia
TK-10 renal = test system: TK-10 renal
SNB-78 CNS = test system: SNB-78 CNS
MALME-3M melanoma = test system: MALME-3M melanoma
HCT-15 colon = test system: HCT-15 colon
MCF7 breast = test system: MCF7 breast
NCI-H460 lung = test system: NCI-H460 lung
OVCAR-8 ovarian = test system: OVCAR-8 ovarian
HOP-62 NSCLC = test system: HOP-62 NSCLC
SK-MEL-5 melanoma = test system: SK-MEL-5 melanoma
HT29 colon = test system: HT29 colon
SF-268 CNS = test system: SF-268 CNS
M19-MEL melanoma = test system: M19-MEL melanoma
NCI-H226 lung = test system: NCI-H226 lung
RPMI-8226 leukemia = test system: RPMI-8226 leukemia
HL-60(TB) leukemia = test system: HL-60(TB) leukemia
MDA-MB-435 = test system: MDA-MB-435
SN12C renal = test system: SN12C renal
IGROV1 ovarian = test system: IGROV1 ovarian
SK-OV-3 ovarian = test system: SK-OV-3 ovarian
K-562 leukemia = test system: K-562 leukemia
KM12 colon = test system: KM12 colon
P388/ADR leukemia = test system: P388/ADR leukemia
CAKI-1 renal = test system: CAKI-1 renal
OVCAR-5 ovarian = test system: OVCAR-5 ovarian
LOX IMVI melanoma = test system: LOX IMVI melanoma
XF 498 CNS = test system: XF 498 CNS
SNB-19 CNS = test system: SNB-19 CNS
SR leukemia = test system: SR leukemia
DU-145 prostate = test system: DU-145 prostate
HOP-18 NSCLC = test system: HOP-18 NSCLC
A549 NSCLC = test system: A549 NSCLC
U251 CNS = test system: U251 CNS
SNB-75 CNS = test system: SNB-75 CNS
A498 renal = test system: A498 renal
NCI-H23 lung = test system: NCI-H23 lung
SK-MEL-2 melanoma = test system: SK-MEL-2 melanoma
SK-MEL-28 melanoma = test system: SK-MEL-28 melanoma
CCRF-CEM leukemia = test system: CCRF-CEM leukemia
NCI-H522 lung = test system: NCI-H522 lung
SW-620 colon = test system: SW-620 colon
OVCAR-3 ovarian = test system: OVCAR-3 ovarian
HS 578T breast = test system: HS 578T breast
SF-539 CNS = test system: SF-539 CNS
BT-549 breast = test system: BT-549 breast
DMS 114 small cell lung = test system: DMS 114 small cell lung
786-0 renal = test system: 786-0 renal
HCC-2998 colon = test system: HCC-2998 colon
ACHN renal = test system: ACHN renal
RXF 393 renal = test system: RXF 393 renal
M14 melanoma = test system: M14 melanoma
EKVX NSCLC = test system: EKVX NSCLC
T-47D breast = test system: T-47D breast
SF-295 CNS = test system: SF-295 CNS
SN12K1 renal = test system: SN12K1 renal
MDA-N = test system: MDA-N
COLO 205 colon = test system: COLO 205 colon
OVCAR-4 ovarian = test system: OVCAR-4 ovarian
MDA-MB-231 breast = test system: MDA-MB-231 breast
HCT-116 colon = test system: HCT-116 colon
HOP-92 NSCLC = test system: HOP-92 NSCLC
UACC-62 melanoma = test system: UACC-62 melanoma
KM20L2 colon = test system: KM20L2 colon
PC-3 prostate = test system: PC-3 prostate

Nc1ncn(C2CC(O)C(CO)O2)c(=O)n1 (centres undefined)
TGI (NCI/ADR-RES ovarian): > 375 µM | TGI (UO-31 renal): > 375 µM | TGI (DLD-1 colon): > 375 µM | TGI (UACC-257 melanoma): 131 µM | TGI (P388 leukemia): 142 µM | TGI (MOLT-4 leukemia): > 375 µM | TGI (TK-10 renal): > 375 µM | TGI (SNB-78 CNS): > 375 µM | TGI (MALME-3M melanoma): > 375 µM | TGI (HCT-15 colon): > 302 µM | TGI (MCF7 breast): > 375 µM | TGI (NCI-H460 lung): > 375 µM | TGI (OVCAR-8 ovarian): 370 µM | TGI (HOP-62 NSCLC): > 319 µM | TGI (SK-MEL-5 melanoma): 254 µM | TGI (HT29 colon): > 375 µM | TGI (SF-268 CNS): > 375 µM | TGI (M19-MEL melanoma): > 375 µM | TGI (NCI-H226 lung): > 331 µM | TGI (RPMI-8226 leukemia): > 375 µM | TGI (HL-60(TB) leukemia): 103 µM | TGI (MDA-MB-435): > 98.3 µM | TGI (SN12C renal): > 375 µM | TGI (IGROV1 ovarian): 372 µM | TGI (SK-OV-3 ovarian): 182 µM | TGI (K-562 leukemia): > 332 µM | TGI (KM12 colon): > 281 µM | TGI (P388/ADR leukemia): 226 µM | TGI (CAKI-1 renal): > 375 µM | TGI (OVCAR-5 ovarian): > 375 µM | TGI (LOX IMVI melanoma): > 375 µM | TGI (XF 498 CNS): > 80.8 µM | TGI (SNB-19 CNS): > 349 µM | TGI (SR leukemia): > 141 µM | TGI (DU-145 prostate): > 375 µM | TGI (HOP-18 NSCLC): > 260 µM | TGI (A549 NSCLC): > 375 µM | TGI (U251 CNS): > 307 µM | TGI (SNB-75 CNS): > 288 µM | TGI (A498 renal): > 332 µM | TGI (NCI-H23 lung): > 375 µM | TGI (SK-MEL-2 melanoma): 232 µM | TGI (SK-MEL-28 melanoma): > 324 µM | TGI (CCRF-CEM leukemia): > 261 µM | TGI (NCI-H522 lung): 218 µM | TGI (SW-620 colon): 373 µM | TGI (OVCAR-3 ovarian): 162 µM | TGI (HS 578T breast): 23.5 µM | TGI (SF-539 CNS): 158 µM | TGI (BT-549 breast): > 178 µM | TGI (DMS 114 small cell lung): > 375 µM | TGI (786-0 renal): > 256 µM | TGI (HCC-2998 colon): > 375 µM | TGI (ACHN renal): > 375 µM | TGI (RXF 393 renal): 350 µM | TGI (M14 melanoma): > 375 µM | TGI (EKVX NSCLC): > 293 µM | TGI (T-47D breast): > 299 µM | TGI (SF-295 CNS): 247 µM | TGI (SN12K1 renal): > 375 µM | TGI (MDA-N): 7.2 µM | TGI (COLO 205 colon): > 298 µM | TGI (OVCAR-4 ovarian): > 375 µM | TGI (MDA-MB-231 breast): > 343 µM | TGI (HCT-116 colon): > 375 µM | TGI (HOP-92 NSCLC): > 375 µM | TGI (UACC-62 melanoma): 265 µM | TGI (KM20L2 colon): > 375 µM | TGI (PC-3 prostate): > 204 µM
